Experiments:
human FPR1 = biological target: T1, human FPR1 (Homo sapiens, UniProt P21462); experiment: FPR1 cyclic adenosine monophosphate (cAMP) assay; type: cell-based; conditions: CHO cells overexpressing human FPR1; forskolin 10 μM; inhibition of cAMP production; HTRF; read-out: hFPR1 cAMP2 EC50
T1 sequence (P21462 1-350): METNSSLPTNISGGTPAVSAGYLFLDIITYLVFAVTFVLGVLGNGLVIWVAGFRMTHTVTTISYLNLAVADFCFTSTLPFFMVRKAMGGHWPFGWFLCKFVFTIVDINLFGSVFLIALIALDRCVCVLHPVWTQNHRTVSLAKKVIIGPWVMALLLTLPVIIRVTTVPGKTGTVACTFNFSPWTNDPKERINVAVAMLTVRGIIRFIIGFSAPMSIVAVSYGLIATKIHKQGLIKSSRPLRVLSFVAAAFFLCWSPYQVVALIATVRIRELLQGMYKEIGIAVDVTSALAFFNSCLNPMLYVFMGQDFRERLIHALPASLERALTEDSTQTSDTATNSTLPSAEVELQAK
From the text: (§1) N-formyl peptide receptors (FPRs) are a family of chemo attractant receptors that facilitate leukocyte response during inflammation. FPRs belong to the seven-transmembrane G protein-coupled receptor superfamily and are linked to inhibitory G-proteins (Gi). Three family members (FPR1, FPR2 and FPR3) have been identified in humans and are predominantly found in myeloid cells with varied distribution and have also been reported in multiple organs and tissues. After agonist binding, the FPRs activate a multitude of physiological pathways, such as intra cellular signaling transduction, Ca^2+ mobilization and transcription. The family interacts with a diverse set of ligands that includes proteins, polypeptides and fatty acid metabolites which activate both pro-inflammatory and pro-resolution downstream responses. FPR2 and FPR1 Cyclic Adenosine Monophosphate (cAMP) Assays were used to measure the in vitro activity of the compounds disclosed in this application.
(§2) FPR2 and FPR1 Cyclic Adenosine Monophosphate (cAMP) Assays. A mixture of forskolin (5 μM final for FPR2 or 10 μM final for FPR1) and IBMX (200 μM final) were added to 384-well Proxiplates (Perkin-Elmer) pre-dotted with test compounds in DMSO (1% final) at final concentrations in the range of 0.020 nM to 100 μM. Chinese Hamster Ovary cells (CHO) overexpressing human FPR1 or human FPR2 receptors were cultured in F-12 (Ham's) medium supplemented with 10% qualified FBS, 250 μg/mL zeocin and 300 μg/mL hygromycin (Life Technologies). Reactions were initiated by adding 2,000 human FPR2 cells per well or 4,000 human FPR1 cells per well in Dulbecco's PBS (with calcium and magnesium) (Life Technologies) supplemented with 0.1% BSA (Perkin-Elmer). The reaction mixtures were incubated for 30 min at rt. The level of intracellular cAMP was determined using the HTRF HiRange cAMP assay reagent kit (Cisbio) according to manufacturer's instruction. Solutions of cryptate conjugated anti-cAMP and d2 flurorophore-labeled cAMP were made in a supplied lysis buffer separately. Upon completion of the reaction, the cells were lysed with equal volume of the d2-cAMP solution and anti-cAMP solution. […] The potency and activity of a compound to inhibit cAMP production was then determined by fitting to a 4-parametric logistic equation from a plot of cAMP level versus compound concentrations.

human FPR2 = biological target: T2, human FPR2 (Homo sapiens, UniProt P25090); experiment: FPR2 cyclic adenosine monophosphate (cAMP) assay; type: cell-based; conditions: CHO cells overexpressing human FPR2; forskolin 5 μM; inhibition of cAMP production; HTRF; read-out: hFPR2 cAMP2 EC50
T2 sequence (P25090 1-351): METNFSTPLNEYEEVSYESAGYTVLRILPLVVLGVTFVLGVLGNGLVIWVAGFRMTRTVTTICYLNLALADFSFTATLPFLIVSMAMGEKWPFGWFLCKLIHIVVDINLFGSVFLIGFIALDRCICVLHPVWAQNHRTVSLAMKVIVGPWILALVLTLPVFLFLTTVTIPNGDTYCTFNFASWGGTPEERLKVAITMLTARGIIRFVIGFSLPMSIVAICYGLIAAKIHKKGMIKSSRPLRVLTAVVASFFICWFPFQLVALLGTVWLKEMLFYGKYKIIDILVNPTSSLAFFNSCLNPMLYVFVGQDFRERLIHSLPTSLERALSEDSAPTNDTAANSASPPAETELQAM
From the text: as §1, §2

SMILES | EC50 (human FPR1) [nM] | EC50 (human FPR2) [nM]
COc1ccc(-c2c(NC(=O)c3ccc(OC(F)F)cc3)c(=O)n(-c3ccccc3)n2C)cc1 [Example 7, 4-(difluoromethoxy)-N-[5-(4-methoxyphenyl)-1-methyl-3-oxo-2-phenyl-2,3-dihydro-1H-pyrazol-4-yl]benzamide] | 300 | 10
COc1cc(F)c(-c2c(NC(=O)c3ccc(C(F)(F)F)cc3)c(=O)n(-c3ccc(F)cc3)n2C)c(F)c1 [Example 17, N-[5-(2,6-difluoro-4-methoxyphenyl)-2-(4-fluorophenyl)-1-methyl-3-oxo-2,3-dihydro-1H-pyrazol-4-yl]-4-(trifluoromethyl)benzamide] | 1700 | 51
COc1cc(OCCS(C)(=O)=O)nc(-n2c(=O)c(NC(=O)c3ccc(OC(F)F)cc3)c(-c3c(F)cc(OC)cc3F)n2C)c1 [Example 335, N-(5-(2,6-Difluoro-4-methoxyphenyl)-2-(4-methoxy-6-(2-(methylsulfonyl)ethoxy)pyridin-2-yl)-1-methyl-3-oxo-2,3-dihydro-1H-pyrazol-4-yl)-4-(difluoromethoxy)benzamide] | > 10000 | 3
COc1cc(F)c(-c2c(NC(=O)c3ccc(OC(F)(F)F)cc3)c(=O)n(-c3ncccc3Cl)n2C)c(F)c1 [Example 41, N-[2-(3-chloropyridin-2-yl)-5-(2,6-difluoro-4-methoxyphenyl)-1-methyl-3-oxo-2,3-dihydro-1H-pyrazol-4-yl]-4-(trifluoromethoxy)benzamide] | 2100 | 7
COc1cc(F)c(-c2c(NC(=O)c3ccc(OC(F)F)cc3)c(=O)n(-c3ccccc3)n2C)c(F)c1 [Example 1, N-[5-(2,6-difluoro-4-methoxyphenyl)-1-methyl-3-oxo-2-phenyl-2,3-dihydro-1H-pyrazol-4-yl]-4-(difluoromethoxy)benzamide] | 2400 | 12
COc1cc(F)c(-c2c(NC(=O)c3ccc(OC(F)(F)F)cc3)c(=O)n(-c3ccc(C)cn3)n2C)c(F)c1 [Example 50, N-[5-(2,6-difluoro-4-methoxyphenyl)-1-methyl-2-(5-methylpyridin-2-yl)-3-oxo-2,3-dihydro-1H-pyrazol-4-yl]-4-(trifluoromethoxy)benzamide] | 1300 | 18
COc1cc(F)c(-c2c(NC(=O)c3ccc(OC(F)F)cc3)c(=O)n(-c3nc(Nc4ncn[nH]4)ccc3C(F)(F)F)n2C)c(F)c1 [Example 234, N-[5-(2,6-difluoro-4-methoxyphenyl)-1-methyl-3-oxo-2-{6-[(1H-1,2,4-triazol-5-yl)amino]-3-(trifluoromethyl)pyridin-2-yl}-2,3-dihydro-1H-pyrazol-4-yl]-4-(difluoromethoxy)benzamide] | 2900 | 3
COc1cc(F)c(-c2c(NC(=O)c3ccc(OC(F)F)cc3)c(=O)n(-c3nc(N[C@@H]4CCOC4)ccc3C(F)(F)F)n2C)c(F)c1 [Example 254, N-[5-(2,6-difluoro-4-methoxyphenyl)-1-methyl-3-oxo-2-(6-{[(3R)-oxolan-3-yl]amino}-3-(trifluoromethyl)pyridin-2-yl)-2,3-dihydro-1H-pyrazol-4-yl]-4-(difluoromethoxy)benzamide] | > 10000 | 4
COc1cc(F)c(-c2c(NC(=O)c3ccc(OC(F)F)cc3)c(=O)n(-c3cc(OCC4(C)COC4)cc(C)n3)n2C)c(F)c1 [Example 327, N-(5-(2,6-Difluoro-4-methoxyphenyl)-1-methyl-2-(6-methyl-4-((3-methyloxetan-3-yl)methoxy)pyridin-2-yl)-3-oxo-2,3-dihydro-1H-pyrazol-4-yl)-4-(difluoromethoxy)benzamide] | 59 | 23

The remaining lines, values ahead:

EC50 (human FPR1) [nM] | EC50 (human FPR2) [nM] | SMILES
320 | 22 | COc1cc(F)c(-c2c(NC(=O)c3ccc(OC(F)F)cc3)c(=O)n(-c3nc(C(F)(F)F)ccc3NCCO)n2C)c(F)c1 [Example 374, N-(5-(2,6-Difluoro-4-methoxyphenyl)-2-(3-((2-hydroxyethyl)amino)-6-(trifluoromethyl)pyridin-2-yl)-1-methyl-3-oxo-2,3-dihydro-1H-pyrazol-4-yl)-4-(difluoromethoxy)benzamide]
6300 | 2 | COc1cc(C2CC2)nc(-n2c(=O)c(NC(=O)c3ccc(OC(F)F)cc3)c(-c3c(F)cc(OC)cc3F)n2C)c1 [Example 88, N-(2-(6-cyclopropyl-4-methoxypyridin-2-yl)-5-(2,6-difluoro-4-methoxyphenyl)-1-methyl-3-oxo-2,3-dihydro-1H-pyrazol-4-yl)-4-(difluoromethoxy)benzamide]
1100 | 18 | COc1cc(F)c(-c2c(NC(=O)c3ccc(OC(F)F)cc3)c(=O)n(-c3ccc(-c4ccccc4)cn3)n2C)c(F)c1 [Example 51, N-[5-(2,6-difluoro-4-methoxyphenyl)-1-methyl-3-oxo-2-(5-phenylpyridin-2-yl)-2,3-dihydro-1H-pyrazol-4-yl]-4-(difluoromethoxy)benzamide]
3600 | 4 | COc1cc(F)c(-c2c(NC(=O)c3ccc(OC(F)F)cc3)c(=O)n(-c3ccc(OCCO)cn3)n2C)c(F)c1 [Example 388, N-(5-(2,6-Difluoro-4-methoxyphenyl)-2-(5-(2-hydroxyethoxy)pyridin-2-yl)-1-methyl-3-oxo-2,3-dihydro-1H-pyrazol-4-yl)-4-(difluoromethoxy)benzamide]
1600 | 2 | COc1cc(F)c(-c2c(NC(=O)c3ccc(OC(F)F)cc3)c(=O)n(-c3cc(C)cc(OCC4(C)COC4)n3)n2C)c(F)c1 [Example 353, N-(5-(2,6-Difluoro-4-methoxyphenyl)-1-methyl-2-(4-methyl-6-((3-methyloxetan-3-yl)methoxy)pyridin-2-yl)-3-oxo-2,3-dihydro-1H-pyrazol-4-yl)-4-(difluoromethoxy)benzamide]
> 10000 | 220 | COc1cc(F)c(-c2c(NC(=O)c3ccc(OC(F)(F)F)cn3)c(=O)n(-c3ccccc3)n2C)c(F)c1 [Example 24, N-[5-(2,6-difluoro-4-methoxyphenyl)-1-methyl-3-oxo-2-phenyl-2,3-dihydro-1H-pyrazol-4-yl]-5-(trifluoromethoxy)pyridine-2-carboxamide]
> 10000 | 4 | COC(=O)COc1ccc(C(F)(F)F)c(-n2c(=O)c(NC(=O)c3ccc(OC(F)F)cc3)c(-c3c(F)cc(OC)cc3F)n2C)n1 [Example 289, methyl 2-({6-[3-(2,6-difluoro-4-methoxyphenyl)-4-[4-(difluoromethoxy)benzamido]-2-methyl-5-oxo-2,5-dihydro-1H-pyrazol-1-yl]-5-(trifluoromethyl)pyridin-2-yl}oxy)acetate]
> 10000 | 5 | COc1cc(F)c(-c2c(NC(=O)c3ccc(OC(F)F)cc3)c(=O)n(-c3nc(NC4(CO)CC4)ccc3C(F)(F)F)n2C)c(F)c1 [Example 231, N-[5-(2,6-difluoro-4-methoxyphenyl)-2-(6-{[1-(hydroxymethyl)cyclopropyl]amino}-3-(trifluoromethyl)pyridin-2-yl)-1-methyl-3-oxo-2,3-dihydro-1H-pyrazol-4-yl]-4-(difluoromethoxy)benzamide]
> 10000 | 22 | COc1cc(F)c(-c2c(NC(=O)c3ccc(OC(F)F)cc3)c(=O)n(-c3nc(Cl)ccc3N3CC4(COC4)C3)n2C)c(F)c1 [Example 144, N-[2-(6-chloro-3-{2-oxa-6-azaspiro[3.3]heptan-6-yl}pyridin-2-yl)-5-(2,6-difluoro-4-methoxyphenyl)-1-methyl-3-oxo-2,3-dihydro-1H-pyrazol-4-yl]-4-(difluoromethoxy)benzamide]

Source: patent US12577206B2 (BRISTOL-MYERS SQUIBB COMPANY, priority 2020, dated 2026)
